Patent publication US12102625B2, “Solid forms of FXR agonists” (Gilead Sciences, Inc., priority 2019, dated 2024)
Counter-ions that a name gives are not always drawn.

Columns and labels:
[1] = Solid-form physical stability at ambient conditions / humidity; type: physicochemical
[2] = Slurry of the tromethamine salt in aqueous media (disproportionation); type: physicochemical

Compound: O=C(O)c1ccnc(N2CC(O)(c3ccc(OCc4c(-c5c(Cl)cccc5Cl)noc4C4CC4)cc3Cl)C2)c1
- time to full conversion to Formula I tromethamine salt hydrate I ([1]; ambient conditions, depending on % RH): ≤ 1 h

Compound: O=C(O)c1ccnc(N2CC(O)(c3ccc(OCc4c(-c5c(Cl)cccc5Cl)noc4C4CC4)cc3Cl)C2)c1 [Formula I tromethamine salt Form II]
- moisture absorption and form conversion ([1]; about >20% RH): rapidly absorbs moisture at about >20% RH and converts to Formula I tromethamine salt hydrate II

Compound: O=C(O)c1ccnc(N2CC(O)(c3ccc(OCc4c(-c5c(Cl)cccc5Cl)noc4C4CC4)cc3Cl)C2)c1 [Formula I tromethamine salt MTBE solvate]
- solid form conversion at ambient conditions ([1]; ambient conditions): converted to disordered material at ambient conditions

Compound: O=C(O)c1ccnc(N2CC(O)(c3ccc(OCc4c(-c5c(Cl)cccc5Cl)noc4C4CC4)cc3Cl)C2)c1 [Formula I tromethamine salt ethanol solvate]
- solid form conversion at ambient conditions ([1]; ambient conditions): converted to Formula I tromethamine salt hydrate I at ambient conditions

Compound: O=C(O)c1ccnc(N2CC(O)(c3ccc(OCc4c(-c5c(Cl)cccc5Cl)noc4C4CC4)cc3Cl)C2)c1 [Formula I tromethamine salt methanol solvate I]
- solid form conversion at ambient conditions ([1]; ambient conditions): loses methanol very rapidly at ambient conditions and converts to tromethamine salt methanol solvate III

Compound: O=C(O)c1ccnc(N2CC(O)(c3ccc(OCc4c(-c5c(Cl)cccc5Cl)noc4C4CC4)cc3Cl)C2)c1 [Formula I tromethamine salt]
- salt stability (disproportionation to zwitterion Form II) ([2]; MeOH/water (0.4-0.6 water activity)): disproportionation
- salt stability in slurry (disproportionation to zwitterion hydrate) ([2]; slurry in water): disproportionation of the salt
